Reference: patent publication US20070149456A1, “Epithelial sodium channel inhibiting agents and uses therefor” (University of Pittsburgh, priority 2005, published 2007)
Where “and” joins values, the source holds several entries; their conditions need not be identical. Equal entries are not always repeated. Entries after “also recorded” stand apart in the source; their conditions may differ. Where two headings read alike, the source gives them in different places.

Target: T1, endogenous ENaC in mpkCCDc14 cells (Mus musculus, UniProt Q61180+Q9WU38+Q9WU39)
T1 construct: endogenous ENaC in a mouse cortical collecting duct (mpkCCDc14) cell line; endogenous in cells; host or cells: mpkCCDc14 mouse cortical collecting duct cell line
T1 sequence (Q61180 1-205): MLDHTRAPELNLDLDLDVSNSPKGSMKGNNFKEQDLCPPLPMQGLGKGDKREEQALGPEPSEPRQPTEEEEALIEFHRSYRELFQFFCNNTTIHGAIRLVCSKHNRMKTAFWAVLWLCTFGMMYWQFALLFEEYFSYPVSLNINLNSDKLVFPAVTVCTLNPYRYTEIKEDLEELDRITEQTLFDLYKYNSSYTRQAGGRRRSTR
T1 sequence (Q61180 232-699): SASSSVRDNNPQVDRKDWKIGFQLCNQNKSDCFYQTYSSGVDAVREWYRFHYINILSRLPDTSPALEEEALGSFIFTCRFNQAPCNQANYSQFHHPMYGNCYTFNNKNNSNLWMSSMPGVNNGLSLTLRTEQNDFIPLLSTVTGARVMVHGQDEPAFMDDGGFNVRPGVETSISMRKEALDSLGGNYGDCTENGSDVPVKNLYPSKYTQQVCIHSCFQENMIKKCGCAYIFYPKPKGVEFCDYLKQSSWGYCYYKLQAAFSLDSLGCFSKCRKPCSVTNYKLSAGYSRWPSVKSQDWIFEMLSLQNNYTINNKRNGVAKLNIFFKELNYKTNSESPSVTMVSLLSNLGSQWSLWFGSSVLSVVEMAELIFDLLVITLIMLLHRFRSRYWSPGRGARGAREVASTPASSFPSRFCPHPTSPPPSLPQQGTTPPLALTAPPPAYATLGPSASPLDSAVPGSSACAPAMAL
T1 sequence (Q9WU38 whole entry): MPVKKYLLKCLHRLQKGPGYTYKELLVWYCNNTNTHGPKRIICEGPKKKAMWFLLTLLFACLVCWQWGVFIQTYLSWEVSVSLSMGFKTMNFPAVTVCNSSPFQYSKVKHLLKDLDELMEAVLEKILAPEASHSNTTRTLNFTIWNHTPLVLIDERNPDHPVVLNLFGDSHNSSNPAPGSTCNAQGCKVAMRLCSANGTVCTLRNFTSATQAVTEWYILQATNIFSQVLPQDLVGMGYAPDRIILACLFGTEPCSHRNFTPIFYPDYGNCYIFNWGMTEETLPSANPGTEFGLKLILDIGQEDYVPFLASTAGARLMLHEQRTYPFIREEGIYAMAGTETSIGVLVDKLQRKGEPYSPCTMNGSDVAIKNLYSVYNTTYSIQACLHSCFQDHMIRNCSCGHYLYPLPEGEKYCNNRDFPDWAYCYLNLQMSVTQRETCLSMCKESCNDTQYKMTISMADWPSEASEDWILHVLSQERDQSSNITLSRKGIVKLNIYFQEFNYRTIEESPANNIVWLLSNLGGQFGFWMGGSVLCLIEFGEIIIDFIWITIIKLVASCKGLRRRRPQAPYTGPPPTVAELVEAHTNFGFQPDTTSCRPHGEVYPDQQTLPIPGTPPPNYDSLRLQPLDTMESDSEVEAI
T1 sequence (Q9WU39 1-143): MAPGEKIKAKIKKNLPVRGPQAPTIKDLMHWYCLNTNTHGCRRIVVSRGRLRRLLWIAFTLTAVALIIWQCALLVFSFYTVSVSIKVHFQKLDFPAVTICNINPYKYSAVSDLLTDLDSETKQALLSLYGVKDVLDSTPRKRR
T1 sequence (Q9WU39 187-655): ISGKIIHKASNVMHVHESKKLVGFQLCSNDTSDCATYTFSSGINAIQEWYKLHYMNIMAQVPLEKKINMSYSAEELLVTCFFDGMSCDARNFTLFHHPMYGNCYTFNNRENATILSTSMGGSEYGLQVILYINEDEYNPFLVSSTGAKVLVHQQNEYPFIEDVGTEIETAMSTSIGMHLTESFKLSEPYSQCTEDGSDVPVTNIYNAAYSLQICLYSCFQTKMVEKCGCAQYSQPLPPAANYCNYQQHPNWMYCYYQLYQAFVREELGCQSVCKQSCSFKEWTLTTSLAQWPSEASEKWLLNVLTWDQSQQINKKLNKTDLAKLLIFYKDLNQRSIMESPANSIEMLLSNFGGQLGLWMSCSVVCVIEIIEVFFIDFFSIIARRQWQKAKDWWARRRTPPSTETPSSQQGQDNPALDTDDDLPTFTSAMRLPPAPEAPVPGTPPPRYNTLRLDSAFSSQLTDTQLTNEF
Test: Amiloride-sensitive short circuit current in mpkCCDc14 monolayers, Ussing chamber
Format: cell-based
Conditions: for Ki: mpkCCDc14 cells; for inhibition of amiloride sensitive short circuit currents: mpkCCDc14, increasing concentrations of peptide; for inhibition of transepithelial Na+ transport: peptide 3 μM in apical chamber; for reversibility of inhibition on washout: peptide 3 μM
Procedure: mpkCCDc14 Cell Culture—mpkCCDc14 cells were grown as previously reported (Bens, M., Vallet, V., Cluzeaud, F., Pascual-Letallec, L., Kahn, A., Rafestin-Oblin, M. E., Rossier, B. C., and Vandewalle, A. (1999), Corticosteroid-dependent sodium transport in a novel immortalized mouse collecting duct principal cell line, J. Am. Soc. Nephrol. 10, 923-934). mpkCCDc14 cells were subcultured onto permeable filter supports coated with collagen (0.4-μm pore size, 1-cm^2 surface area, Snapwell filters; Coming Inc., Acton, Mass.). Cells were kept on filters for at least 4 days in defined medium (Bens, M., Vallet, V., Cluzeaud, F., Pascual-Letallec, L., Kahn, A., Rafestin-Oblin, M. E., Rossier, B. C., and Vandewalle, A. (1999) J. Am. Soc. Nephrol. 10, 923-934 30) that was changed every second day. At least 24 h prior to the experiments, the culture medium was replaced with a minimal medium (without drugs or hormones) that contained only Dulbecco's modified Eagle's medium and Ham's F-12.
Short Circuit Current Measurements—Cell culture inserts were mounted in modified Ussing chambers (Harvard Apparatus, Holliston, Mass.), and the monolayers were continuously short-circuited with a voltage/current clamp system (Physiologic Instruments, San Diego, Calif.). A 2-mV bipolar pulse was applied periodically to measure the resistance of the monolayer. As previously described by Bridges et al. (Bridges, R. J., Newton, B. B., Pilewski, J. M., Devor, D. C., Poll, C. T., and Hall, R. L. (2001), Na+ transport in normal and CF human bronchial epithelial cells is inhibited by BAY 39-9437, Am. J. Physiol. 281, L16-L23 32, Na^+ transport in normal and CF human bronchial epithelial cells is inhibited by BAY 39-9437), the bath solution contained (in mM) 120 NaCl, 25 NaHCO3, 3.3 KH2PO4, 0.8 K2HPO4, 1.2 MgCl2, 1.2 CaCl2, and 10 glucose. The pH of this solution was 7.4 when gassed with a mixture of 95% O2-5% CO2 at 37° C.
(FIG. 6A) mpkCCDc14cells cultured on permeable membrane supports and mounted in a modified Ussing chamber were continuously short-circuited by a voltage clamp amplifier (Physiologic Instruments, San Diego, Calif.). Transepithelial resistance was monitored by applying a 4 mV bipolar pulse every 60 seconds. Where indicated, a 43 residue peptide corresponding to E144-K186 of mouse γ-ENaC (γ-peptide) was added to the apical chamber at a final concentration of 3 μM. […] Data presented as mean +/−standard error (n=8).
Vectors and Cell Culture—Wild-type, C-terminal and double epitope tagged mouse ENaC subunit cDNAs were previously described (Hughey, R. P., Mueller, G. M., Bruns, J. B., Kinlough, C. L., Poland, P. A., Harkleroad, K. L., Carattino, M. D., and Kleyman, T. R. (2003) J Biol Chem 278, 37073-37082 and Ahn, Y. J., Brooker, D. R., Kosari, F., Harte, B. J., Li, J., Mackler, S. A., and Kleyman, T. R. (1999), Cloning and functional expression of the mouse epithelial sodium channel, Am J Physiol 277, F121-129). The γ subunit mutations were generated in pcDNA3.1 (+) using a standard two-step PCR method. A cDNA clone (IMAGE #: 3600399) encoding full length mouse prostasin was obtained from Open Biosystems (Huntsville, Ala.) and sub-cloned into pcDNA3.1 (+) (Invitrogen, Carlsbad, Calif.). MDCK type 1 cells were a gift from Barry M. Gumbiner (Memorial Sloan-Kettering Cancer Center, New York) and were cultured as previously described (Lavelle, J. P., Negrete, H. O., Poland, P. A., Kinlough, C. L., Meyers, S. D., Hughey, R. P., and Zeidel, M. L. (1997), Low permeabilities of MDCK cell monolayers: a model barrier epithelium, Am J Physiol 273, F67-75). CCD (mpkCCDc14) cells were a gift from Alain Vandewalle (Institut National de la Santéet de la Recherche Médicale, Paris, France) and were cultured as previously described (Bens, M., Vallet, V., Cluzeaud, F., Pascual-Letallec, L., Kahn, A., Rafestin-Oblin, M. E., Rossier, B. C., and Vandewalle, A. (1999) J Am Soc Nephrol 10, 923-934).

Substance | Ki (stated jointly for HBE or mpkCCDc14, read-out: Ki, block of endogenous ENaC activity) [µM] | increase of the IC50 for amiloride block (CCD cells, 3 μM γ-43) [%] | IC50 (mouse CCD (mpkCCDc14), nonlinear curve fitting, read-out: IC50, inhibition of short circuit currents) | inhibition of amiloride sensitive short circuit currents (listed as γ cleavage product) | inhibition of amiloride sensitive short circuit currents (listed as γ-peptide) | Ki (stated jointly for HBE and mpkCCDc14, read-out: apparent Ki, inhibition of endogenous ENaC activity) [µM] | inhibition of transepithelial Na+ transport | inhibition of transepithelial Na+ transport (listed as γ-peptide) | reversibility of inhibition on washout | reversibility of inhibition on washout (listed as γ-peptide)
Ac-DLRGALPHPLQRLRTPPPPNPARSAR-NH2 [α-26] | 50 to 100 | – | – | – | – | – | – | – | – | –
Ac-EAGSMRSTWEGTPPRFLNLIPLLVFNENEKGKARDFFTGRKRK-NH2 [γ-43] | – | 60 | 2 to 3 µM and 3.2 µM | inhibited in a dose dependent manner | inhibited in a dose dependant manner | ~2 | rapidly inhibited; also recorded: marked inhibition | marked inhibition | reversible; also recorded: relieved by washout | reversibly inhibits; also recorded: relieved by wash out
